Holding throughout (assay): relative viability (nuclei count vs DMSO), 5 days (fraction); higher = more cells survive
Compound in the experiment “Idelalisib + Pictilisib”: CC[C@H](Nc1ncnc2[nH]cnc12)c1nc2cccc(F)c2c(=O)n1-c1ccccc1 [Idelalisib] + CS(=O)(=O)N1CCN(Cc2cc3nc(-c4cccc5[nH]ncc45)nc(N4CCOCC4)c3s2)CC1 [Pictilisib] (partner 1 µM)
Summed up: (§1)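 Lung cancer cell lines were pin-tool dosed in 1536-well plates on the day after seeding, with either a lone drug or a fixed anchor-drug dose plus five library-drug doses (not always all listed) in √10 steps. Nuclei were counted on 4× images after 5 days. Relative viability is the ratio of treated-well to vehicle-well nuclei counts, with each value a median of duplicate plates.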

Compound in the experiment “Pemetrexed + Lapatinib”: Nc1nc2[nH]cc(CCc3ccc(C(=O)N[C@@H](CCC(=O)O)C(=O)O)cc3)c2c(=O)[nH]1 [Pemetrexed] + CS(=O)(=O)CCNCc1ccc(-c2ccc3ncnc(Nc4ccc(OCc5cccc(F)c5)c(Cl)c4)c3c2)o1 [Lapatinib] (partner 2 µM)
The gist of the method: as §1

Compound in the experiment “Pemetrexed + Decitabine”: Nc1nc2[nH]cc(CCc3ccc(C(=O)N[C@@H](CCC(=O)O)C(=O)O)cc3)c2c(=O)[nH]1 [Pemetrexed] + Nc1ncn([C@H]2C[C@H](O)[C@@H](CO)O2)c(=O)n1 [Decitabine] (partner 2 µM)
Summed up: as §1

Compound in the experiment “Idelalisib + OSI-027”: CC[C@H](Nc1ncnc2[nH]cnc12)c1nc2cccc(F)c2c(=O)n1-c1ccccc1 [Idelalisib] + COc1cccc2cc(-c3nc([C@H]4CC[C@H](C(=O)O)CC4)n4ncnc(N)c34)[nH]c12 [OSI-027] (partner 0.5 µM)
The gist of the method: as §1

On to NCI-H596, for which the relative viability with Idelalisib + Pictilisib (first compound 0.04 µM) was 0.412; with Idelalisib + Pictilisib (first compound 0.1265 µM), 0.402; with Idelalisib + Pictilisib (first compound 0.4 µM), 0.389; with Idelalisib + Pictilisib (first compound 1.265 µM), 0.405; in the experiment with Idelalisib + Pictilisib (first compound 4 µM), 0.65; with Pemetrexed + Lapatinib (first compound 0.002 µM), 1.03. For the same cell line, the relative viability stood at 1.09 with Pemetrexed + Lapatinib (first compound 0.006325 µM); 1.07 with Pemetrexed + Lapatinib (first compound 0.02 µM); 0.82 with Pemetrexed + Lapatinib (first compound 0.06325 µM); 0.644 with Pemetrexed + Lapatinib (first compound 0.2 µM); 0.996 with Pemetrexed + Decitabine (first compound 0.002 µM); 1.03 with Pemetrexed + Decitabine (first compound 0.006325 µM). In addition, the relative viability with Pemetrexed + Decitabine (first compound 0.02 µM) is 0.972; in the experiment with Pemetrexed + Decitabine (first compound 0.06325 µM), 0.839; with Pemetrexed + Decitabine (first compound 0.2 µM), 0.553; in the experiment with Idelalisib + OSI-027 (first compound 0.04 µM), 0.859; with Idelalisib + OSI-027 (first compound 0.1265 µM), 0.746; with Idelalisib + OSI-027 (first compound 0.4 µM), 0.666. Moreover, the values for the relative viability in the experiment with Idelalisib + OSI-027 (first compound 1.265 µM) and in the experiment with Idelalisib + OSI-027 (first compound 4 µM) were 0.65 and 0.551, respectively.
Take RERF-LC-KJ: the relative viability in the experiment with Idelalisib + Pictilisib (first compound 0.04 µM) is 0.493; with Idelalisib + Pictilisib (first compound 0.1265 µM) it was 0.521; with Idelalisib + Pictilisib (first compound 0.4 µM) it was 0.581; with Idelalisib + Pictilisib (first compound 1.265 µM), 0.516; in the experiment with Idelalisib + Pictilisib (first compound 4 µM), 0.53; with Pemetrexed + Lapatinib (first compound 0.002 µM), 0.739. The relative viability with Pemetrexed + Lapatinib (first compound 0.006325 µM) stood at 0.835; with Pemetrexed + Lapatinib (first compound 0.02 µM), 0.842; with Pemetrexed + Lapatinib (first compound 0.06325 µM), 0.892; in the experiment with Pemetrexed + Lapatinib (first compound 0.2 µM), 0.692; in the experiment with Pemetrexed + Decitabine (first compound 0.002 µM) it was 0.609; in the experiment with Pemetrexed + Decitabine (first compound 0.006325 µM), 0.753. The relative viability with Pemetrexed + Decitabine (first compound 0.02 µM) stood at 0.801; with Pemetrexed + Decitabine (first compound 0.06325 µM), 0.721; with Pemetrexed + Decitabine (first compound 0.2 µM), 0.415; with Idelalisib + OSI-027 (first compound 0.04 µM), 0.632; with Idelalisib + OSI-027 (first compound 0.1265 µM), 0.563; with Idelalisib + OSI-027 (first compound 0.4 µM) it was 0.436. Further, the relative viability in the experiment with Idelalisib + OSI-027 (first compound 1.265 µM) was determined as 0.502; in the experiment with Idelalisib + OSI-027 (first compound 4 µM), 0.516.
NCI-H647: the relative viability with Idelalisib + Pictilisib (first compound 0.04 µM) was 0.448; in the experiment with Idelalisib + Pictilisib (first compound 0.1265 µM), 0.452; with Idelalisib + Pictilisib (first compound 0.4 µM), 0.475; with Idelalisib + Pictilisib (first compound 1.265 µM) it was 0.377; in the experiment with Idelalisib + Pictilisib (first compound 4 µM) it was 0.393; with Pemetrexed + Lapatinib (first compound 0.006325 µM) it was 1.08. Also, the relative viability with Pemetrexed + Lapatinib (first compound 0.02 µM) was 1.16; in the experiment with Pemetrexed + Lapatinib (first compound 0.06325 µM), 0.889; with Pemetrexed + Lapatinib (first compound 0.2 µM) it was 0.264; with Pemetrexed + Decitabine (first compound 0.002 µM) it was 0.263; with Pemetrexed + Decitabine (first compound 0.006325 µM) it was 0.366; in the experiment with Pemetrexed + Decitabine (first compound 0.02 µM), 0.515. In addition, the relative viability with Pemetrexed + Decitabine (first compound 0.06325 µM) was 0.39; with Pemetrexed + Decitabine (first compound 0.2 µM), 0.233; with Idelalisib + OSI-027 (first compound 0.04 µM), 0.758; with Idelalisib + OSI-027 (first compound 0.1265 µM) it was 0.64; with Idelalisib + OSI-027 (first compound 1.265 µM), 0.527; with Idelalisib + OSI-027 (first compound 4 µM), 0.423.
With NCI-H1734, the relative viability turned out to be 0.519 with Idelalisib + Pictilisib (first compound 0.04 µM); 0.492 with Idelalisib + Pictilisib (first compound 0.1265 µM); 0.41 in the experiment with Idelalisib + Pictilisib (first compound 0.4 µM); 0.453 in the experiment with Idelalisib + Pictilisib (first compound 1.265 µM); 0.37 in the experiment with Idelalisib + Pictilisib (first compound 4 µM); 0.724 in the experiment with Pemetrexed + Lapatinib (first compound 0.002 µM). For the same cell line, the relative viability stood at 0.995 in the experiment with Pemetrexed + Lapatinib (first compound 0.006325 µM); 1.13 with Pemetrexed + Lapatinib (first compound 0.02 µM); 1.01 with Pemetrexed + Lapatinib (first compound 0.06325 µM); 0.525 with Pemetrexed + Lapatinib (first compound 0.2 µM); 0.485 in the experiment with Pemetrexed + Decitabine (first compound 0.002 µM); 0.472 in the experiment with Pemetrexed + Decitabine (first compound 0.006325 µM). The relative viability in the experiment with Pemetrexed + Decitabine (first compound 0.02 µM) was determined as 0.52; with Pemetrexed + Decitabine (first compound 0.06325 µM), 0.517; with Pemetrexed + Decitabine (first compound 0.2 µM) it was 0.427; in the experiment with Idelalisib + OSI-027 (first compound 0.04 µM), 0.659; in the experiment with Idelalisib + OSI-027 (first compound 0.1265 µM), 0.593; with Idelalisib + OSI-027 (first compound 0.4 µM) it was 0.404. Also, the relative viability was found to be 0.579 with Idelalisib + OSI-027 (first compound 1.265 µM) and 0.537 with Idelalisib + OSI-027 (first compound 4 µM).
Turning to SK-LU-1, the relative viability with Idelalisib + Pictilisib (first compound 0.04 µM) worked out at 0.553; with Idelalisib + Pictilisib (first compound 0.1265 µM), 0.668; in the experiment with Idelalisib + Pictilisib (first compound 0.4 µM), 0.532; in the experiment with Idelalisib + Pictilisib (first compound 1.265 µM) it was 0.574; with Idelalisib + Pictilisib (first compound 4 µM), 0.552; with Pemetrexed + Lapatinib (first compound 0.002 µM) it was 0.772. In addition, the relative viability with Pemetrexed + Lapatinib (first compound 0.006325 µM) was 0.853; with Pemetrexed + Lapatinib (first compound 0.02 µM) it was 0.96; with Pemetrexed + Lapatinib (first compound 0.06325 µM) it was 0.804; with Pemetrexed + Lapatinib (first compound 0.2 µM), 0.695; in the experiment with Pemetrexed + Decitabine (first compound 0.002 µM) it was 0.617; with Pemetrexed + Decitabine (first compound 0.006325 µM) it was 0.659. The relative viability in the experiment with Pemetrexed + Decitabine (first compound 0.02 µM) turned out to be 0.699; with Pemetrexed + Decitabine (first compound 0.06325 µM), 0.642; with Pemetrexed + Decitabine (first compound 0.2 µM), 0.603; with Idelalisib + OSI-027 (first compound 0.04 µM) it was 0.383; with Idelalisib + OSI-027 (first compound 0.1265 µM), 0.39; with Idelalisib + OSI-027 (first compound 0.4 µM), 0.27. Moreover, the relative viability was 0.369 with Idelalisib + OSI-027 (first compound 1.265 µM) and 0.272 with Idelalisib + OSI-027 (first compound 4 µM).
Consider NCI-H1395, for which the relative viability with Idelalisib + Pictilisib (first compound 0.04 µM) came out at 0.714; with Idelalisib + Pictilisib (first compound 0.1265 µM) it was 0.525; with Idelalisib + Pictilisib (first compound 0.4 µM), 0.564; with Idelalisib + Pictilisib (first compound 1.265 µM), 0.613; with Idelalisib + Pictilisib (first compound 4 µM), 0.557; in the experiment with Pemetrexed + Lapatinib (first compound 0.002 µM), 0.875. Further, the relative viability in the experiment with Pemetrexed + Lapatinib (first compound 0.006325 µM) was found to be 1.02; in the experiment with Pemetrexed + Lapatinib (first compound 0.02 µM), 1.11; with Pemetrexed + Lapatinib (first compound 0.06325 µM), 0.922; in the experiment with Pemetrexed + Lapatinib (first compound 0.2 µM), 0.883; with Pemetrexed + Decitabine (first compound 0.002 µM), 0.681; in the experiment with Pemetrexed + Decitabine (first compound 0.006325 µM) it was 0.71. Further, the relative viability amounted to 0.85 with Pemetrexed + Decitabine (first compound 0.02 µM); 0.697 with Pemetrexed + Decitabine (first compound 0.06325 µM); 0.74 with Pemetrexed + Decitabine (first compound 0.2 µM); 0.713 in the experiment with Idelalisib + OSI-027 (first compound 0.04 µM); 0.639 in the experiment with Idelalisib + OSI-027 (first compound 0.1265 µM); 0.621 with Idelalisib + OSI-027 (first compound 0.4 µM). Also, the figures for the relative viability with Idelalisib + OSI-027 (first compound 1.265 µM) and with Idelalisib + OSI-027 (first compound 4 µM) were 0.561 and 0.454, respectively.
For COR-L23, the relative viability with Idelalisib + Pictilisib (first compound 0.04 µM) stood at 0.674; with Idelalisib + Pictilisib (first compound 0.1265 µM) it was 0.8; with Idelalisib + Pictilisib (first compound 0.4 µM) it was 0.514; with Idelalisib + Pictilisib (first compound 1.265 µM) it was 0.8; with Idelalisib + Pictilisib (first compound 4 µM), 0.777; in the experiment with Pemetrexed + Lapatinib (first compound 0.002 µM), 0.853. Moreover, the relative viability with Pemetrexed + Lapatinib (first compound 0.006325 µM) was 0.815; in the experiment with Pemetrexed + Lapatinib (first compound 0.02 µM), 1.05; with Pemetrexed + Lapatinib (first compound 0.06325 µM), 0.365; with Pemetrexed + Lapatinib (first compound 0.2 µM), 0.192; with Pemetrexed + Decitabine (first compound 0.002 µM), 0.419; with Pemetrexed + Decitabine (first compound 0.006325 µM), 0.465. Also, the relative viability with Pemetrexed + Decitabine (first compound 0.02 µM) was 0.554; with Pemetrexed + Decitabine (first compound 0.06325 µM), 0.225; in the experiment with Pemetrexed + Decitabine (first compound 0.2 µM), 0.188; with Idelalisib + OSI-027 (first compound 0.04 µM) it was 0.78; with Idelalisib + OSI-027 (first compound 0.1265 µM), 0.815; with Idelalisib + OSI-027 (first compound 0.4 µM), 0.722. Moreover, the relative viability in the experiment with Idelalisib + OSI-027 (first compound 1.265 µM) turned out to be 0.809; with Idelalisib + OSI-027 (first compound 4 µM) it was 0.74.

Values taken from the supplement of paper PMC10307832.
